Like-named read-outs stand apart in the source and are kept apart here.
What was measured:
human RORγ = target: T1, human RORγ (Homo sapiens, UniProt P51449); assay: In vitro assay of inhibitory effect against RORγ transcriptional activity (GAL4-hRORγ LBD luciferase reporter gene assay in CHO cells); format: cell-based; details: for hRORγ luciferase activity, %-of-control: value in parentheses beside the > EC50 bound, vehicle-control 0.2% DMSO alone = 100%
T1 construct: human RORγ, from Ser253 to Lys518; expressed in transfected cells; host or cells: CHO cells (Chinese hamster ovary), transient co-transfection with pG5-Luc
T1 sequence (P51449 253-518): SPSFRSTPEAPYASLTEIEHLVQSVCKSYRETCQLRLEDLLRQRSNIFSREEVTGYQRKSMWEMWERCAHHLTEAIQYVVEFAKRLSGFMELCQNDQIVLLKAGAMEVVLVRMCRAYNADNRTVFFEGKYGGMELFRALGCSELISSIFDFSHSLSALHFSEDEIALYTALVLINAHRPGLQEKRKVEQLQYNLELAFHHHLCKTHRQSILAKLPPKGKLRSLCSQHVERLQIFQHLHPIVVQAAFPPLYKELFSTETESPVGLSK
In short: (§1)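 Transcriptional activity of human or mouse RORγ LBD, tethered to the GAL4 DNA-binding domain, is monitored by a GAL4-dependent firefly luciferase reporter in transiently transfected CHO cells. Test articles are incubated for 2 days; values are %-of-control or fitted EC50.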

mouse RORγ = target: T2, mouse RORγ (Mus musculus, UniProt P51450); assay: In vitro assay of inhibitory effect against RORγ transcriptional activity (GAL4-mRORγ LBD luciferase reporter gene assay in CHO cells); format: cell-based; details: for mRORγ luciferase activity, %-of-control: value in parentheses beside the > EC50 bound, vehicle-control 0.2% DMSO alone = 100%
T2 construct: mouse RORγ, from Ile251 to Lys516; expressed in transfected cells; host or cells: CHO cells (Chinese hamster ovary), transient co-transfection with pG5-Luc
T2 sequence (P51450 251-516): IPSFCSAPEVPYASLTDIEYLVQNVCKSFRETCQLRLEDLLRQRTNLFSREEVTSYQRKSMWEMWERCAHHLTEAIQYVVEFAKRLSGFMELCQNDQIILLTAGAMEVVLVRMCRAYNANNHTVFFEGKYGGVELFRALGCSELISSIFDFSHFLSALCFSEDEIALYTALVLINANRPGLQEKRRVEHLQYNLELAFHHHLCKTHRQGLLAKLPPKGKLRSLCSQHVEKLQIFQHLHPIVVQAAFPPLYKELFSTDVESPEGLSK
In short: as §1

[1] = GAL4-hRORγ LBD / pG5-Luc in CHO cells, 2 days incubation
[2] = GAL4-mRORγ LBD / pG5-Luc in CHO cells, 2 days incubation
[3] = GAL4-hRORγ LBD luciferase reporter, CHO cells, read-out: LUC EC50 hRORγ
[4] = GAL4-mRORγ LBD luciferase reporter, CHO cells, read-out: LUC EC50 mRORγ

Compound	EC50 (human RORγ; [1])	hRORγ luciferase activity, %-of-control (human RORγ)	EC50 (mouse RORγ; [2])	mRORγ luciferase activity, %-of-control (mouse RORγ)	EC50 (human RORγ; [3])	EC50 (mouse RORγ; [4])
CC(C)C1=CN(CCC(=O)O)C(=O)N[C@]1(C)c1ccc(CCc2ccccc2)c(Cl)c1 [Example 143]	> 8 µM	(90%)	> 8 µM	(100%)	–	–
CC(C)C1=CN(CCC(=O)O)C(=O)N[C@@]1(C)c1ccc(CCc2ccccc2)c(Cl)c1 [Example 144]	> 0.512 µM	(60%)	0.037 µM	–	–	–
CC(C)(C)CCc1ccc([C@@]2(C)NC(=O)N(CCCC(=O)O)C=C2C2CC(F)(F)C2)cc1Cl [Example 145]	2.04 µM	–	3.97 µM	–	–	–
CC(C)(C)CCc1ccc([C@]2(C)NC(=O)N(CCCC(=O)O)C=C2C2CC(F)(F)C2)cc1Cl [Example 146]	0.014 µM	–	0.012 µM	–	–	–
CC(C)C1=CN(C[C@H]2C[C@H](C(=O)O)C2)C(=O)N[C@@]1(C)c1ccc(CCC(C)(C)C)c(Cl)c1 [Example 154, 3-{(S)-4-[3-chloro-4-(3,3-dimethyl-butyl)-phenyl]-5-isopropyl-4-methyl-2-oxo-3,4-dihydro-2H-pyrimidin-1-ylmethyl}-cyclobutanecarboxylic acid]	0.01 µM	–	0.014 µM	–	–	–
CC(C)C1=CN(c2ccc(C(=O)O)cc2)C(=O)N[C@@]1(C)c1ccc(CCC(C)(C)C)c(Cl)c1 [Example 159, 4-{(S)-4-[3-chloro-4-(3,3-dimethyl-butyl)-phenyl]-5-isopropyl-4-methyl-2-oxo-3,4-dihydro-2H-pyrimidin-1-yl}-benzoic Acid]	0.021 µM	–	0.023 µM	–	–	–
CC(C)C1=CN([C@H]2CC(=O)N(CC(=O)O)C2)C(=O)N[C@@]1(C)c1ccc(CCC(C)(C)C)c(Cl)c1 [Example 162]	0.172 µM	–	0.275 µM	–	–	–
CC(C)C1=CN([C@@H]2CC(=O)N(CC(=O)O)C2)C(=O)N[C@@]1(C)c1ccc(CCC(C)(C)C)c(Cl)c1 [Example 163]	0.143 µM	–	0.267 µM	–	–	–
CC(C)C1=CN(CCC(=O)O)C(=O)N[C@@]1(C)c1ccc(C2CC3(CCC3)C2)c(Cl)c1 [Example 173]	0.022 µM	–	0.011 µM	–	–	–
CC(C)C1=CN(C23CC(C(=O)O)(C2)C3)C(=O)N[C@@]1(C)c1ccc(CCC(C)(C)C)c(Cl)c1 [Example 186]	0.091 µM	–	0.116 µM	–	–	–
CC(C)CCOc1c(F)cc([C@]2(C)NC(=O)N(c3ccc(C(=O)O)cc3)C=C2C(C)C)cc1Cl [Example 192]	–	–	–	–	0.017 µM	0.011 µM
CC(C)C1=CN(c2ccc(C(=O)O)cc2)C(=O)N[C@@]1(C)c1cc(F)c(OCC(C)(C)C)c(Cl)c1 [Example 193]	–	–	–	–	0.018 µM	0.019 µM
CC(C)C1=CN(c2ccc(C(=O)O)cc2)C(=O)N[C@@]1(C)c1ccc(CCC(C)(C)C(F)(F)F)c(Cl)c1 [Example 196]	–	–	–	–	0.009 µM	0.017 µM
CO[C@H]1C[C@H](N2C=C(C(C)(C)CCC(=O)O)[C@](C)(c3ccc(CCC(C)(C)C)c(Cl)c3)NC2=O)C1 [Example 197]	–	–	–	–	0.013 µM	0.023 µM
COC[C@H]1C[C@H](N2C=C(C(C)(C)CCC(=O)O)[C@](C)(c3ccc(CCC(C)(C)C)c(Cl)c3)NC2=O)C1 [Example 198]	–	–	–	–	0.012 µM	0.026 µM
CC(C)(C)CCc1ccc([C@]2(C)NC(=O)N(C3CCOCC3)C=C2[C@H]2C[C@@H](C(=O)O)C2)cc1Cl [Example 199]	–	–	–	–	0.07 µM	0.136 µM
CO[C@H]1C[C@H](N2C=C([C@H]3C[C@@H](C(=O)O)C3)[C@](C)(c3ccc(CCC(C)(C)C)c(Cl)c3)NC2=O)C1 [Example 200]	–	–	–	–	0.014 µM	0.023 µM
CC(C)CCOc1ccc([C@]2(C)NC(=O)N(CCC(=O)O)C=C2CC(C)C)c(F)c1Cl [Example 202]	–	–	–	–	0.087 µM	0.052 µM
CC(C)C1=CN(c2ccc(C(=O)O)cc2)C(=O)N[C@@]1(C)c1ccc(COC(C)(C)C)c(Cl)c1 [Example 203]	–	–	–	–	0.03 µM	0.021 µM
CC(C)C1=CN(Cc2ccc(C(=O)O)cc2)C(=O)N[C@@]1(C)c1ccc(CCC(C)(C)C)c(Cl)c1 [Example 204]	–	–	–	–	0.014 µM	0.017 µM

The next lines start with the values.

EC50 (human RORγ; [1])	hRORγ luciferase activity, %-of-control (human RORγ)	EC50 (mouse RORγ; [2])	mRORγ luciferase activity, %-of-control (mouse RORγ)	EC50 (human RORγ; [3])	EC50 (mouse RORγ; [4])	Compound
> 8 µM	(57%)	> 8 µM	(52%)	–	–	CC(C)C1=CN(CCC(=O)O)C(=O)N[C@]1(C)c1ccc(CCC2CC(C)(C)C2)c(Cl)c1 [Example 141]
> 0.512 µM	(102%)	0.049 µM	–	–	–	CC(C)C1=CN(CCC(=O)O)C(=O)N[C@@]1(C)c1ccc(CCC2CC(C)(C)C2)c(Cl)c1 [Example 142]
0.059 µM	–	0.03 µM	–	–	–	CC(C)C1=CN(CCC(=O)O)C(=O)N[C@@]1(C)c1ccc(COC(C)(C)C)c(Cl)c1 [Example 147]
> 8 µM	(57%)	> 8 µM	(69%)	–	–	CC(C)C1=CN(CCC(=O)O)C(=O)N[C@]1(C)c1ccc(C2=CCCC2)c(Cl)c1 [Example 148]
1.01 µM	–	0.245 µM	–	–	–	CC(C)C1=CN(CCC(=O)O)C(=O)N[C@@]1(C)c1ccc(C2=CCCC2)c(Cl)c1 [Example 149]
0.021 µM	–	0.012 µM	–	–	–	CC(C)CCOc1ccc([C@]2(C)NC(=O)N(CCC(=O)O)C=C2C(C)C)cc1Cl [Example 150]
> 20 µM	(56%)	> 20 µM	(57%)	–	–	CC(C)C1=CN(CCC(=O)O)C(=O)N[C@]1(C)c1ccc(C2CCC2)c(Cl)c1 [Example 152]
0.327 µM	–	0.116 µM	–	–	–	CC(C)C1=CN(CCC(=O)O)C(=O)N[C@@]1(C)c1ccc(C2CCC2)c(Cl)c1 [Example 153]
> 8 µM	(83%)	> 8 µM	(81%)	–	–	CC(C)C1=CN(CCC(=O)O)C(=O)N[C@]1(C)c1ccc(C2CCCC2)c(Cl)c1 [Example 155]
0.52 µM	–	0.166 µM	–	–	–	CC(C)C1=CN(CCC(=O)O)C(=O)N[C@@]1(C)c1ccc(C2CCCC2)c(Cl)c1 [Example 156]
0.497 µM	–	0.255 µM	–	–	–	CC(C)OCc1ccc([C@]2(C)NC(=O)N(CCC(=O)O)C=C2C(C)C)cc1Cl [Example 157]
0.03 µM	–	0.023 µM	–	–	–	CC(C)C1=CN(CCC(=O)O)C(=O)N[C@@]1(C)c1ccc(CC[Si](C)(C)C)c(Cl)c1 [Example 158]
0.154 µM	–	0.047 µM	–	–	–	CC(C)C1=CN(CCC(=O)O)C(=O)N[C@@]1(C)c1cc(F)c(OCc2ccccc2)c(Cl)c1 [Example 161]
0.018 µM	–	0.011 µM	–	–	–	CC(C)C1=CN(CCC(=O)O)C(=O)N[C@@]1(C)c1cc(F)c(OCC(C)(C)C)c(Cl)c1 [Example 164]
0.027 µM	–	0.017 µM	–	–	–	CC(C)C1=CN(CCC(=O)O)C(=O)N[C@@]1(C)c1cc(F)c(OCCC(C)(C)C)c(Cl)c1 [Example 165]
0.009 µM	–	0.012 µM	–	–	–	CC(C)C1=CN(CCC(=O)O)C(=O)N[C@@]1(C)c1cc(F)c(CCC(C)(C)C)c(Cl)c1 [Example 175]
0.022 µM	–	0.013 µM	–	–	–	CC(C)C1=CN(CCC(=O)O)C(=O)N[C@@]1(C)c1ccc(CCC(C)(C)C)c(F)c1 [Example 176]
0.017 µM	–	0.017 µM	–	–	–	CCC(CC)Cc1ccc([C@]2(C)NC(=O)N(CCC(=O)O)C=C2C(C)C)cc1Cl [Example 177]
0.019 µM	–	0.021 µM	–	–	–	CCCC(CCC)Cc1ccc([C@]2(C)NC(=O)N(CCC(=O)O)C=C2C(C)C)cc1Cl [Example 178]
0.064 µM	–	0.027 µM	–	–	–	CC(C)C1=CN(CCC(=O)O)C(=O)N[C@@]1(C)c1ccc(C(C)CC(C)(C)C)c(Cl)c1 (some centres unmarked) [Example 179]
0.118 µM	–	0.078 µM	–	–	–	CC(C)COc1ccc([C@]2(C)NC(=O)N(CCC(=O)O)C=C2C(C)C)cc1Cl [Example 183]
0.009 µM	–	0.014 µM	–	–	–	CC(C)C1=CN(CCC(=O)O)C(=O)N[C@@]1(C)c1ccc(CCC(C)(C)C(F)(F)F)c(Cl)c1 [Example 185]
0.03 µM	–	0.022 µM	–	–	–	CC(C)C1=CN(CCC(=O)O)C(=O)N[C@@]1(C)c1cc(F)c(/C=C/C(C)(C)C)c(Cl)c1 [Example 189]
–	–	–	–	0.058 µM	0.028 µM	CC(C)COc1c(F)cc([C@]2(C)NC(=O)N(CCC(=O)O)C=C2C(C)C)cc1Cl [Example 194]
–	–	–	–	0.018 µM	0.012 µM	CC(C)CCOc1c(F)cc([C@]2(C)NC(=O)N(CCC(=O)O)C=C2C(C)C)cc1Cl [Example 195]
–	–	–	–	0.06 µM	0.051 µM	CC(C)CC1=CN(CCC(=O)O)C(=O)N[C@@]1(C)c1ccc(OCC(C)(C)C)c(Cl)c1F [Example 201]
